Source: article PMC11887451, “Leveraging Immunogenic Cell Death to Enhance the Immune Response against Malignant Pleural Mesothelioma Tumors” (Journal of the American Chemical Society, 2025)

Tests used:
[1] = tested on: murine malignant mesothelioma cell line AB12; assay: MTT cytotoxicity assay, 72 h, AB12; assay type: cell-based, mouse; details: exposure time 72 h
Description: (§1) Human malignant mesothelioma cancer cell lines JU77 and LO68 were obtained from Cell Bank Australia (Children's Medical Research Institute, Westmead, Australia). Mouse malignant mesothelioma cancer cell line AB12, human nonmalignant mesothelioma cancer cell line Met5A (mesothelial cells), mouse macrophage cell line J774 and human monocytic cell line THP-1 were obtained from American Type Culture Collection (ATCC) (Rockville, MD, USA). Human malignant mesothelioma cell lines VMC23 (epithelial), Meso82 (sarcomatous), Meso92 (biphasic), were kindly provided by Prof. Walter Berger (Medical University of Vienna). All cells except for J774 were cultured in RPMI and J774 cells were cultured in DMEM. Both types of media were supplemented with 10% FBS and 1% penicillin-streptomycin (10,000 U/mL). Cells were grown in tissue culture flasks (75 cm2 and 25 cm2, SPL Life Sciences Co., Ltd., Korea). All cell lines were grown at 37 °C in a humidified atmosphere of 95% air and 5% CO 2 and passaged when they reached 80–90% confluency. All Au stock solutions were prepared in 1% DMSO in the respected medium, ensuring that cell viability was not inhibited.
(§2) The cytotoxicity of compounds was determined using an MTT colorimetric test. The cells were harvested from culture flasks by trypsinization and seeded into Cellstar 96 -well microculture plates (Greiner Bio -One) at the seeding density of 6000 cells per well (6 × 10^4 cells/mL). After
(§3) the cells were allowed to resume exponential growth for 16 h, they were exposed to drugs at
(§4) different concentrations in media for 72 h. The drugs were diluted in a complete medium at the desired concentration added to each well (100 μL) and serially diluted in other wells. After exposure for 72 h, the media was replaced with MTT in media (5 mg/mL, 100 μL/well) and
(§5) incubated for an additional 50 min. Subsequently, the medium was aspirated, and the purple formazan crystals formed in viable cells were dissolved in DMSO (100 μL/well). Optical densities were measured at 570 nm using a BioTek Synergy H1 microplate and MultiskanTM SkyHigh plate readers. The quantity of viable cells was expressed in terms of treated/control (T/C) values in comparison to untreated control cells, and 50% inhibitory concentrations (IC 50) were calculated from concentration-effect curves by interpolation. An evaluation was based on means from at least three independent experiments, each comprising three replicat es per

[2] = tested on: human malignant mesothelioma cell line JU77; assay: MTT cytotoxicity assay, 72 h, JU77; assay type: cell-based; details: exposure time 72 h
Description: as §1, §2, §3, §4, §5

[3] = tested on: human malignant mesothelioma cell line LO68; assay: MTT cytotoxicity assay, 72 h, LO68; assay type: cell-based; details: exposure time 72 h
Description: as §1, §2, §3, §4, §5

[4] = tested on: patient-derived VMC23 cell line (epithelioid MPM); assay: MTT cytotoxicity assay, 72 h, VMC23; assay type: cell-based, human; details: exposure time 72 h
[5] = tested on: patient-derived Meso84 cell line (sarcomatoid MPM); assay: MTT cytotoxicity assay, 72 h, Meso84; assay type: cell-based, human; details: exposure time 72 h
[6] = tested on: patient-derived Meso92 cell line (biphasic MPM); assay: MTT cytotoxicity assay, 72 h, Meso92; assay type: cell-based, human; details: exposure time 72 h
[7] = tested on: human nonmalignant mesothelioma cell line Met5A; assay: MTT cytotoxicity assay, 72 h, Met5A; assay type: cell-based; details: exposure time 72 h
[8] = tested on: AB12 cells phagocytosed by J774 macrophages; assay: Phagocytosis assay, flow cytometry; assay type: cell-based, mouse; details: AB12 treated 100 min at 5 × IC50 (72 h), 16 h with J774 macrophages
Protocol: page 21: incubated for an additional 50 min. Subsequently, the medium was aspirated, and the purple formazan crystals formed in viable cells were dissolved in DMSO (100 μL/well). Optical densities were measured at 570 nm using a BioTek Synergy H1 microplate and MultiskanTM SkyHigh plate readers. The quantity of viable cells was expressed in terms of treated/control (T/C) values in comparison to untreated control cells, and 50% inhibitory concentrations (IC 50) were calculated from concentration-effect curves by interpolation. An evaluation was based on means from at least three independent experiments, each comprising three […] concentration level. For macrophage analyses, the acute monocytic leukemia -derived THP-1 cell line (ATCC) was used as a model. 1 × 104 THP-1 cells were seeded per well in 96-well plates in RPMI-1640 with 10% FCS and treated for 24 h with 75 nM phorbol 12-myristate 13-acetate (PMA, Sigma- Aldrich) to induce M0 macrophage differentiation. After the differentiation period, PMA was replaced by fresh culture medium to recover for 2h. Afterwards increasing concentrations of 1G, 5A, 5B and 5G were added for a 72-h continuous drug exposure assay. In parallel, the […] were allowed to attach for 24 h. Gold compounds were added to the cells as described for the THP-1 model above. After the incubation period of 72 h, cell viability was determined by an MTT-based assay (EU4U, Biomedica) following the instructions of the manufacturer. DMSO had not impact on the cell viability at the concentrations used. Flow cytometry experiments Phagocytosis assay […] with RPMI, centrifuged (300 × g, 5 min) and labelled with CellTracker Red CMTPX Dye (0.72 μM for 5 × 10^5 cells) at 37°C for 30 minutes in 1 ml of serum -free RPMI. Following S21 page 22: centrifugation of the cells (300 × g, 5 min), 5 ml of fresh RPMI was introduced, and the cells were seeded at a density of 5 x 10^5 cells per well into Cellstar 6-well plates (Greiner Bio-One) (1 ml per well). J774 macrophages (70-80% confluence in a T75 flask) were detached by scraping, centrifuged (300 × g, 5 min). The medium was substituted with 1 ml of DMEM containing CellTracker Green CMFDA (1 μM) and the J774 macrophages were stained at 37°C for 30 minutes. Following centrifugation of the J774 macrophages (300 × g, 5 min), 5 ml of fresh DMEM was introduced, and the macrophages were seeded into a 100 cm2 petri dish (SPL Life Sciences, Korea). After 24 h, the media in AB12 cells was replaced with 1 ml of fresh […] for 100 minutes. After removing the drug-containing media, the cells were trypsinized (0.5 ml), neutralized with 1 ml of RPMI, centrifuged (300 × g, 5 min) and counted. From each sample, […] cells into 6-well plates. AB12 cells and J774 macrophages were co-incubated for 16 h at 37°C and 5% CO2, detached by scraping, centrifuged (300 × g, 5 min), and the pellets were resuspended in PBS for immediate analysis using a CytoFLEX Flow Cytometer (Beckman Coulter, USA). The percentage of phagocytosis was determined by calculating the number of double-positive macrophages (Q2) over the total number of macrophages (Q2 + Q3). […] Annexin V/PI assay AB12 cells were seeded into Cellstar 6-well plates (Greiner Bio-One) at a density of 5 × 10^5 cells/well (1 ml per well). […] The medium was removed and cells were washed with PBS (2 × 1 mL). Afterwards the cells were […] S22

[9] = tested on: calreticulin (CRT) in AB12 cells; assay: CRT detection, flow cytometry; assay type: cell-based, mouse; details: AB12, 5 × IC50 (72 h), 120 min
Protocol: page 23: concentrations for 100 min at 37 °C. After the treatment, the supernatant was collected in 2 mL microtubes, centrifuged (300 × g, 5 min) and the media was removed. The adherent cells were then trypsinized with 500 μL of trypsin at 37 °C for 5 min. Next, 1 mL of medium was added to neutralize trypsin and the resulting cell suspension was combined with the supernatant. The wells were washed with 200 μL of PBS, which was also combined with the supernatant. The combined solutions were centrifuged (300 × g, 5 min), and the resulting pellets were washed with PBS (2 × 1 mL) and resuspended in 200 μL of Annexin V binding buffer. […] Cell death was evaluated by flow cytometry using a CytoFLEX Flow Cytometer equipped with a 488 nm laser and a 638 nm laser (Beckman Coulter, Brea, CA, USA). The cells were excited by the 488 nm laser, and fluorescence emissions were detected at 525/40 nm for FITC (Annexin V) and at 610/20 nm for ECD (PI). […] The percentage of necrosis was determined by calculating the sum of cells in Q1 and Q2. […] Next, cells were incubated with CRT antibody conjugated with AlexaFluor S23 page 24: 488 (62304S, Cell Signaling Technology) at 4 °C overnight, washed twice with PBS, reconstituted in 500 µL of PBS and analyzed by flow cytometry using a CytoFLEX Flow Cytometer equipped with a 488 nm laser and a 638 nm laser (Beckman Coulter, Brea, CA, USA). […]

[10] = Aqueous stability by RP-HPLC in 1:1 DMSO:H2O over 72 h; assay type: physicochemical; details: room temperature
Protocol: The aqueous stability of the Au(III)–DTC complexes was assessed by monitoring their RP-HPLC profiles in a 1:1 DMSO:H2O mixture at room temperature over a 3-day period (Supplementary Figures 112–146).
Determination of the purity of cyclometalated Au( III) complexes was performed using analytical HPLC on a Shimadzu Prominence System equipped with a DGU -20A3 Degasser, two LC-20AD Liquid Chromatography Pump, a SPD-20A UV/Vis Detector and a Shim Pack GVP-ODS 2.0 mm 18 column ([…], 120Å, 250 mm × 4.60 mm i.d.). The analysis was conducted at r.t. with a flow rate of 1.0 mL/min and detection at 254 and 280 nm. Mobile phase A was H2O + 0.1% Trifluoroacetic acid (TFA) while mobile phase B is ACN + 0.1% TFA. The gradient program parameters were as follows: mobil e phase B was increased from 30 to 95% over 30 min. 95% mobile phase B was maintained for 10 min, 95 to 30% over 5 min, and finally returned to 30% for 10 min for the next analysis. LogP values of the complexes were calculated based on the HPLC retention times derived from the calibration standard curve. The calibration standard curve was established using 2-butanone, phenylacetonitrile, anisole, ethyl benzoate, benzophenone, diphenyl ether and triphenylamine. To conduct an aqueous stability study, the HPLC profiles of the sample stock solutions were diluted to a 1:1 ratio of DMSO to […]
water. […]

[11] = tested on: AB12 cells in BALB/c mice; assay: In vivo vaccination model; parameters: species or system mouse; details: within the first 30 days after vaccination, n = 8
[12] = tested on: calreticulin (CRT) in AB12 cells; details: AB12, 5 × IC50, 120 min
Protocol: emission was detected at 525/40 nm for FITC (CRT).
Confocal microscopy experiments
AB12 cells were seeded into confocal dishes (Biosharp) at a density of 3 × 10^5 cells/dish (1
mL per dish). The cells were allowed to resume exponential growth for 16 h. Afterwards, the
cells were incubated with a fresh medium containing compounds at their respective 5 × IC50
concentrations for 2 h at 37°C. After the treatment, the dishes were washed with 1 ml of PBS,
fixed in 4% paraformaldehyde in PBS at r. t. for 20 min and washed twice with 1 mL of PBS.
The dishes were then incubated with CRT antibody conjugated with Alexa Fluor 488 (1:200 in
the dishes were incubated with Wheat Germ Agglutinin conjugated with Alexa Fluor 633 dye
(W21404, Invitrogen) at r. t. in darkness for 30 min, washed with 1 mL of PBS, stained with
propidium iodide (PI) for 10 min at r. t. in darkness and washed with 1 mL of PBS. Samples
were stored in 1 mL of PBS. The confocal images were acquired by Laser Confocal Scanning

## COc1cccc2c1C(=O)c1c(O)c3c(c(O)c1C2=O)C[C@@](O)(C(=O)CO)C[C@@H]3O[C@H]1C[C@H](N)[C@H](O)[C@H](C)O1 [doxorubicin]
physchem
  chromatographic logP: 0.68

## N.N.[Cl][Pt][Cl] [Cisplatin, cisplatin, reference compound]
[1]
  IC50: 4.5 ± 0.8 µM
[2]
  IC50: 4.2 ± 0.5 µM
[3]
  IC50: 20 ± 6 µM
[4]
  IC50: 3.6 ± 1 µM
[5]
  IC50: 17 ± 2 µM
[6]
  IC50: 4 ± 0.9 µM
[7]
  IC50: 2 ± 0.5 µM
[8]
  phagocytosis / ICD response (in words): failed to initiate any ICD response
[9]
  CRT expression (in words): no changes in CRT expression

## CCCC[N+](CCCC)=C1[S][Au-]2([S]1)[c]1ccccc1C(OC)c1cccc[n+]12.F[P-](F)(F)(F)(F)F (racemic) [4C]
[1]
  IC50: 3.1 ± 0.4 µM
[2]
  IC50: 1.6 ± 0.1 µM
[3]
  IC50: 3.1 ± 0.3 µM
[4]
  IC50: 2.5 ± 0.2 µM
[5]
  IC50: 2.7 ± 0.8 µM
[6]
  IC50: 4.5 ± 0.8 µM
[7]
  IC50: 3 ± 0.7 µM
[10]
  hydrolysis over the 72-h period: less than 10%
[10]; 24 h
  minor RP-HPLC peak, share of the total area after 24 h: 2%
[10]; 72 h
  minor RP-HPLC peak, share of the total area after 72 h: 8%
[8]
  phagocytosis rate: 37% ± 12%
[11]
  mice that developed tumors after vaccination: ≈ 50%
[12]
  CRT translocation, confocal microscopy: translocation of CRT to the plasma membrane
